Data as given in patent US5112858A, “Antibiotic, aranorosin, a microbiological process for the preparation thereof, and the use thereof as a pharmaceutical” (Hoechst Aktiengesellschaft, priority 1988, dated 1992).
≈ marks a conversion by molar mass, not a printed value.

Tests used:
[1] = tested on: Gram-positive and Gram-negative bacteria as well as yeasts and filamentous fungi; assay: Antibacterial and antifungal activity (summary statement); assay type: cell-based
Excerpt: (§1) The minimum inhibitory concentrations of the new antibiotic aranorosin required to inhibit various strains of bacteria and fungi are listed in Table I.

[2] = tested on: Pseudomonas aeruginosa ATCC 9027; assay: MIC against bacteria and fungi (Table I); assay type: cell-based; details: ATCC9027, read-out: Minimum inhibitory concentration (MIC)
Excerpt: as §1

Saccaromyces cerevisiae = assay: MIC against bacteria and fungi (Table I); assay type: cell-based; details: read-out: Minimum inhibitory concentration (MIC)
Excerpt: as §1

[3] = tested on: Klebsiella aerogenes 1082 E; assay: MIC against bacteria and fungi (Table I); assay type: cell-based; details: read-out: Minimum inhibitory concentration (MIC)
Excerpt: as §1

[4] = tested on: Staphylococcus aureus 20204; assay: MIC against bacteria and fungi (Table I); assay type: cell-based; details: read-out: Minimum inhibitory concentration (MIC)
Excerpt: as §1

[5] = tested on: Staphylococcus aureus 503; assay: MIC against bacteria and fungi (Table I); assay type: cell-based; details: read-out: Minimum inhibitory concentration (MIC)
Excerpt: as §1

[6] = tested on: Enterobacter cloacae 1321 E; assay: MIC against bacteria and fungi (Table I); assay type: cell-based; details: read-out: Minimum inhibitory concentration (MIC)
Excerpt: as §1

E. coli 1507 E = assay: MIC against bacteria and fungi (Table I); assay type: cell-based; details: Escherichia coli, read-out: Minimum inhibitory concentration (MIC)
Excerpt: as §1

E. coli DC 2 = assay: MIC against bacteria and fungi (Table I); assay type: cell-based; details: Escherichia coli, DC2, read-out: Minimum inhibitory concentration (MIC)
Excerpt: as §1

[7] = tested on: Streptococcus pyogenes 308A; assay: MIC against bacteria and fungi (Table I); assay type: cell-based; details: read-out: Minimum inhibitory concentration (MIC)
Excerpt: as §1

[8] = tested on: Staphylococcus aureus 285; assay: MIC against bacteria and fungi (Table I); assay type: cell-based; details: read-out: Minimum inhibitory concentration (MIC)
Excerpt: as §1

E. coli DC O = assay: MIC against bacteria and fungi (Table I); assay type: cell-based; details: Escherichia coli, read-out: Minimum inhibitory concentration (MIC)
Excerpt: as §1

Microspora gypseum = assay: MIC against bacteria and fungi (Table I); assay type: cell-based; details: read-out: Minimum inhibitory concentration (MIC)
Excerpt: as §1

[9] = tested on: Streptococcus pyogenes 77 A; assay: MIC against bacteria and fungi (Table I); assay type: cell-based; details: read-out: Minimum inhibitory concentration (MIC)
Excerpt: as §1

[10] = tested on: Pseudomonas aeruginosa 1592 E; assay: MIC against bacteria and fungi (Table I); assay type: cell-based; details: read-out: Minimum inhibitory concentration (MIC)
Excerpt: as §1

Cercospora beticola = assay: MIC against bacteria and fungi (Table I); assay type: cell-based; details: read-out: Minimum inhibitory concentration (MIC)
Excerpt: as §1

Bacillus subtilis = assay: MIC against bacteria and fungi (Table I); assay type: cell-based; details: read-out: Minimum inhibitory concentration (MIC)
Excerpt: as §1

Aspergillus niger = assay: MIC against bacteria and fungi (Table I); assay type: cell-based; details: read-out: Minimum inhibitory concentration (MIC)
Excerpt: as §1

[11] = tested on: Enterobacter cloacae P 99; assay: MIC against bacteria and fungi (Table I); assay type: cell-based; details: P99, read-out: Minimum inhibitory concentration (MIC)
Excerpt: as §1

Candida albicans = assay: MIC against bacteria and fungi (Table I); assay type: cell-based; details: read-out: Minimum inhibitory concentration (MIC)
Excerpt: as §1

Botrytis cinerea = assay: MIC against bacteria and fungi (Table I); assay type: cell-based; details: read-out: Minimum inhibitory concentration (MIC)
Excerpt: as §1

[12] = tested on: Staphylococcus aureus R 85; assay: MIC against bacteria and fungi (Table I); assay type: cell-based; details: R85, read-out: Minimum inhibitory concentration (MIC)
Excerpt: as §1

[13] = tested on: Pseudomonas aeruginosa 1771 M; assay: MIC against bacteria and fungi (Table I); assay type: cell-based; details: read-out: Minimum inhibitory concentration (MIC)
Excerpt: as §1

E. coli Ese 2231 = assay: MIC against bacteria and fungi (Table I); assay type: cell-based; details: Escherichia coli, ESE2231, read-out: Minimum inhibitory concentration (MIC)
Excerpt: as §1

Sarcina lutea = assay: MIC against bacteria and fungi (Table I); assay type: cell-based; details: Micrococcus luteus, read-out: Minimum inhibitory concentration (MIC)
Excerpt: as §1

[14] = tested on: Klebsiella aerogenes 1522 E; assay: MIC against bacteria and fungi (Table I); assay type: cell-based; details: read-out: Minimum inhibitory concentration (MIC)
Excerpt: as §1

[15] = tested on: Pseudomonas aeruginosa 1771; assay: MIC against bacteria and fungi (Table I); assay type: cell-based; details: read-out: Minimum inhibitory concentration (MIC)
Excerpt: as §1

Streptococcus faecalis = assay: MIC against bacteria and fungi (Table I); assay type: cell-based; details: Enterococcus faecalis, read-out: Minimum inhibitory concentration (MIC)
Excerpt: as §1

E. coli TEM = assay: MIC against bacteria and fungi (Table I); assay type: cell-based; details: Escherichia coli, read-out: Minimum inhibitory concentration (MIC)
Excerpt: as §1

E. coli 055 = assay: MIC against bacteria and fungi (Table I); assay type: cell-based; details: Escherichia coli, read-out: Minimum inhibitory concentration (MIC)
Excerpt: as §1

[16] = tested on: Staphylococcus aureus SG 511; assay: MIC against bacteria and fungi (Table I); assay type: cell-based; details: SG511, read-out: Minimum inhibitory concentration (MIC)
Excerpt: as §1

Penicillium italicum = assay: MIC against bacteria and fungi (Table I); assay type: cell-based; details: read-out: Minimum inhibitory concentration (MIC)
Excerpt: as §1

Salmonella typhimurium = assay: MIC against bacteria and fungi (Table I); assay type: cell-based; details: Salmonella enterica, read-out: Minimum inhibitory concentration (MIC)
Excerpt: as §1

[17] = tested on: Staphylococcus aureus 209 P; assay: MIC against bacteria and fungi (Table I); assay type: cell-based; details: read-out: Minimum inhibitory concentration (MIC)
Excerpt: as §1

Solubility = assay type: physicochemical
[18] = tested on: malignant tumors and leukemias; assay: Cytostatic activity (statement); assay type: cell-based; details: general statement, no data given

## CCCCCCC(C)/C=C(C)/C=C/C(=O)NC1CC2(OC1O)C1OC1C(=O)C1OC12 (stereo not shown) [aranorosin]
[1]; conclusion from Table I
  effectiveness against bacteria, yeasts and filamentous fungi: effective against Gram-positive and Gram-negative bacteria as well as yeasts and filamentous fungi
[1]; general statement
  bactericidal and fungicidal properties: has bactericidal and fungicidal properties
[2]
  MIC: > 100 µg/mL
Saccaromyces cerevisiae
  MIC: 500 µg/mL (≈ 1190 µM)
[3]
  MIC: 50 µg/mL (≈ 119 µM)
[4]
  MIC: 1.5 µg/mL (≈ 3.58 µM)
[5]
  MIC: 0.78 µg/mL (≈ 1.86 µM)
[6]
  MIC: 100 µg/mL (≈ 238 µM)
E. coli 1507 E
  MIC: 100 µg/mL (≈ 238 µM)
E. coli DC 2
  MIC: 25 µg/mL (≈ 59.6 µM)
[7]
  MIC: 0.78 µg/mL (≈ 1.86 µM)
[8]
  MIC: 0.78 µg/mL (≈ 1.86 µM)
E. coli DC O
  MIC: 100 µg/mL (≈ 238 µM)
Microspora gypseum
  MIC: 3 µg/mL (≈ 7.15 µM)
[9]
  MIC: 0.78 µg/mL (≈ 1.86 µM)
[10]
  MIC: > 100 µg/mL
Cercospora beticola
  MIC: 3 µg/mL (≈ 7.15 µM)
Bacillus subtilis
  MIC: 1.5 µg/mL (≈ 3.58 µM)
Aspergillus niger
  MIC: 7.5 µg/mL (≈ 17.9 µM)
[11]
  MIC: 100 µg/mL (≈ 238 µM)
Candida albicans
  MIC: 30 µg/mL (≈ 71.5 µM)
Botrytis cinerea
  MIC: 30 µg/mL (≈ 71.5 µM)
[12]
  MIC: 1.5 µg/mL (≈ 3.58 µM)
[13]
  MIC: 50 µg/mL (≈ 119 µM)
E. coli Ese 2231
  MIC: > 200 µg/mL
Sarcina lutea
  MIC: 1.5 µg/mL (≈ 3.58 µM)
[14]
  MIC: 100 µg/mL (≈ 238 µM)
[15]
  MIC: > 100 µg/mL
Streptococcus faecalis
  MIC: 3 µg/mL (≈ 7.15 µM)
E. coli TEM
  MIC: 100 µg/mL (≈ 238 µM)
E. coli 055
  MIC: 100 µg/mL (≈ 238 µM)
[16]
  MIC: 0.78 µg/mL (≈ 1.86 µM)
Penicillium italicum
  MIC: 30 µg/mL (≈ 71.5 µM)
Salmonella typhimurium
  MIC: 50 µg/mL (≈ 119 µM)
[17]
  MIC: 1.5 µg/mL (≈ 3.58 µM)
Solubility; in benzene
  Solubility: sparingly soluble
Solubility; in diethyl ether, chloroform, acetone, ethyl acetate, dimethyl sulfoxide and methanol
  Solubility: soluble
Solubility; in petroleum ether
  Solubility: Insoluble
Solubility; in water
  Solubility: Insoluble
[18]
  cytostatic properties: has cytostatic properties
